Measurements published in patent US8883745B2, “C—glycolipids with enhanced Th-1 profile” (New York University, priority 2006, dated 2014).

What was measured:
Assay type in all cases: in vivo
IL-12 = IL-12 levels in sera upon i.v. glycolipid administration to BALB/c mice (ELISA); set-up: IL-12 levels, test 1 / IL-12 levels, test 2 / IL-12 levels, average / IL-12 levels, Total: unit not given here
Procedure: (§1) Five- to six-week-old female C57BL/6 mice and BALB/c mice were purchased from Taconic. Each glycolipid was stored at 1 mg/ml in 100% DMSO. Mice were injected intravenously with 1 μg of each glyocolipid diluted in 200 μL sterile phosphate buffered saline (PBS). At indicated time points, sera were collected from each animal, and concentrations of IFN-γ, IL-4, and IL-12 in the sera were evaluated by enzyme-linked immunosorbent assay (ELISA). Serum concentrations of IFN-γ, IL-4, and IL-12 were evaluated using an ELISA kit (eBioscience, San Diego, Calif.). Briefly, 96 well flat-bottom ELISA plates (NUNC) were coated with capture antibody according to the manufacture's recommendation and incubated overnight at 4° C. The plates were washed with PBS+0.05% Tween 20 (PBS-T), then incubated with manufacturer provided blocking solution for 1 hr at room temperature to block non-specific binding sites. After washing with PBS-T, sera diluted 1:10 was added to the wells and incubated for 2 hrs at room temperature. Plates were then incubated at room temperature for 1 hr with biotintylated detection antibody, washed, incubated with avidin conjugated to horse radish peroxidase (HRP) for 30 min at room temperature, washed, and finally incubated with tetramethylbenzidine substrate solution in the dark for 10 minutes at room temperature. The antibodies, avidin-HRP, and substrate solution were all diluted according to the manufacture's recommendation. Reactions were stopped with 2.0N sulfuric acid and the cytokine concentration in each well was determined by comparing the absorbance at 450 nm in each well to known standards. The levels of Th1- and Th2-type cytokines were determined in two different genetic backgrounds, i.e., in C57BL/6 mice and BALB/c mice. The following compounds were administered: A=compound (A-1 trans-conformer), B=compound (A-2), C=compound (A-3), D=compound (A-4), E=compound (A-5), Z=control (PBS alone), CRONY=α-C-GalCer, KRN=α-GalCer, GCK109 (A-1 trans-conformer), GCK151 (A-1 cis-conformer), GCK152 (A-7). The levels of cytokines were measured at 0, 2, 6, 12, 24, 48, and 72 hours after the compound administration. The levels of Th1-type cytokines IFN-γ and IL-12 are summarized in FIGS. 2A-C and 3A-C, respectively. Table 7 provides IFN-γ/IL-4 and IL-12/IL-4 ratios for various compounds, which can be used as indicators of their ability to selectively stimulate Th1-type immune responses.

IL-4 = IL-4 levels in sera upon i.v. glycolipid administration to BALB/c mice (ELISA); set-up: unit not given here
Procedure: as §1

IFN-γ [1] = test: IFN-γ levels in sera upon i.v. glycolipid administration to BALB/c mice (ELISA); set-up: IFN-γ levels, test 1 / IFN-γ levels, test 2 / IFN-γ levels, average / IFN-γ levels, Total: unit not given here
Procedure: as §1

IFN-γ [2] = test: IFN-γ levels in sera upon i.v. glycolipid administration to C57BL/6 mice (ELISA); set-up: IFN-γ levels, test 1 / IFN-γ levels, test 2 / IFN-γ levels, average / IFN-γ levels, Total / IFN-γ (B6): unit not given here
Procedure: as §1

## CCCCCCCCCCCCCC[C@@H](O)[C@@H](O)[C@H](CC[C@H]1O[C@H](CO)[C@H](O)[C@H](O)[C@H]1O)NC(=O)CCCCCCCCCCCCCCCCCCCOCCCCC [A-5]
IL-12; ratio calculated from Tables 1-6
  IL-12/IL-4 (BALB/c): 13
IL-12; serum, hour 0
  IL-12 levels, average: 5
  IL-12 levels, test 1: 5
  IL-12 levels, test 2: 5
IL-12; serum, hour 2
  IL-12 levels, average: 153.5
  IL-12 levels, test 1: 74
  IL-12 levels, test 2: 233
IL-12; serum, hour 6
  IL-12 levels, average: 1668
  IL-12 levels, test 1: 1587
  IL-12 levels, test 2: 1749
IL-12; serum, hour 12
  IL-12 levels, average: 2806.5
  IL-12 levels, test 1: 2246
  IL-12 levels, test 2: 3367
IL-12; serum, hour 24
  IL-12 levels, average: 141
  IL-12 levels, test 1: 110
  IL-12 levels, test 2: 172
IL-12; serum, hour 48
  IL-12 levels, average: 97
  IL-12 levels, test 1: 0
  IL-12 levels, test 2: 194
IL-12; serum, hour 72
  IL-12 levels, average: 76.5
  IL-12 levels, test 1: 153
  IL-12 levels, test 2: 0
IL-12; serum, total over hours 0-72
  IL-12 levels, Total: 4949
IL-4; hour 0
  IL-4 level, average: 27
  IL-4 level, test 1: 27
  IL-4 level, test 2: 27
IL-4; hour 2
  IL-4 level, average: 156
  IL-4 level, test 1: 122
  IL-4 level, test 2: 190
IL-4; hour 6
  IL-4 level, average: 67.5
  IL-4 level, test 1: 60
  IL-4 level, test 2: 75
IL-4; hour 12
  IL-4 level, average: 45.5
  IL-4 level, test 1: 48
  IL-4 level, test 2: 43
IL-4; hour 24
  IL-4 level, average: 41
  IL-4 level, test 1: 39
  IL-4 level, test 2: 43
IL-4; hour 48
  IL-4 level, average: 40
  IL-4 level, test 1: 41
  IL-4 level, test 2: 39
IL-4; hour 72
  IL-4 level, average: 3.4
  IL-4 level, test 1: 3.4
  IL-4 level, test 2: 3.4
IL-4; total over hours 0-72
  IL-4 level, Total: 382
IFN-γ [1]; BALB/c, ratio calculated from Tables 1-6
  IFN-γ/IL-4 (BALB/c): 39
IFN-γ [1]; BALB/c, serum, hour 0
  IFN-γ levels, average: 2.5
  IFN-γ levels, test 1: 27
  IFN-γ levels, test 2: 27
IFN-γ [1]; BALB/c, serum, hour 2
  IFN-γ levels, average: 101
  IFN-γ levels, test 1: 118
  IFN-γ levels, test 2: 84
IFN-γ [1]; BALB/c, serum, hour 6
  IFN-γ levels, average: 1665
  IFN-γ levels, test 1: 1650
  IFN-γ levels, test 2: 1680
IFN-γ [1]; BALB/c, serum, hour 12
  IFN-γ levels, average: 3566
  IFN-γ levels, test 1: 4018
  IFN-γ levels, test 2: 3114
IFN-γ [1]; BALB/c, serum, hour 24
  IFN-γ levels, average: 9104.5
  IFN-γ levels, test 1: 8738
  IFN-γ levels, test 2: 9471
IFN-γ [1]; BALB/c, serum, hour 48
  IFN-γ levels, average: 425.5
  IFN-γ levels, test 1: 453
  IFN-γ levels, test 2: 398
IFN-γ [1]; BALB/c, serum, hour 72
  IFN-γ levels, average: 56
  IFN-γ levels, test 1: 54
  IFN-γ levels, test 2: 58
IFN-γ [1]; BALB/c, serum, total over hours 0-72
  IFN-γ levels, Total: 14922
IFN-γ [1]; C57BL/6 and BALB/c mice, 1 μg i.v.
  effect: higher/extended IFN-γ and IL-12 with much lower IL-4 compared to α-GalCer (KRN): particularly pronounced
IFN-γ [2]; C57BL/6, ratio calculated from Tables 1-6
  IFN-γ/IL-4 (B6): 18
IFN-γ [2]; C57BL/6, serum, hour 0
  IFN-γ levels, average: 31
  IFN-γ levels, test 1: 31
  IFN-γ levels, test 2: 31
IFN-γ [2]; C57BL/6, serum, hour 2
  IFN-γ levels, average: 112.5
  IFN-γ levels, test 1: 130
  IFN-γ levels, test 2: 95
IFN-γ [2]; C57BL/6, serum, hour 6
  IFN-γ levels, average: 929
  IFN-γ levels, test 1: 930
  IFN-γ levels, test 2: 928
IFN-γ [2]; C57BL/6, serum, hour 12
  IFN-γ levels, average: 2108
  IFN-γ levels, test 1: 2215
  IFN-γ levels, test 2: 2001
IFN-γ [2]; C57BL/6, serum, hour 24
  IFN-γ levels, average: 8196.5
  IFN-γ levels, test 1: 7680
  IFN-γ levels, test 2: 8713
IFN-γ [2]; C57BL/6, serum, hour 48
  IFN-γ levels, average: 295
  IFN-γ levels, test 1: 249
  IFN-γ levels, test 2: 341
IFN-γ [2]; C57BL/6, serum, hour 72
  IFN-γ levels, average: 102
  IFN-γ levels, test 1: 101
  IFN-γ levels, test 2: 103
IFN-γ [2]; C57BL/6, serum, total over hours 0-72
  IFN-γ levels, Total: 11775
